Measurements as given in ChEMBL document CHEMBL2177032, “Shooting for selective druglike G-quadruplex binders: evidence for telomeric DNA damage and tumor cell death” (2012).
The source made the active and inactive calls. The calls are words filed in the database; no cut-off is given here.

Legend:
Nucleic Acid [1] = assay: Binding affinity to d(TGGGGT) quadruplex DNA by chemical shift perturbation method; type: nucleic-acid assay
Nucleic Acid [2] = assay: Binding affinity to d(TGGGGT) quadruplex DNA by NMR analysis; type: nucleic-acid assay
BJ [3] = assay: Induction of telomere damage in human BJ cells expressing hTERT and SV40 early region assessed as gammaH2AX/TRF1 colocalizations at 0.1 to 0.5 uM after 24 hrs by immunofluorescence analysis; type: functional
BJ [4] = assay: Induction of DNA damage in human BJ cells expressing hTERT and SV40 early region assessed as damaged foci colocalized with TRF1 at 0.1 to 0.5 uM after 24 hrs by deconvolution microscopy analysis; type: functional, cell-based
BJ [5] = assay: Induction of DNA damage in human BJ cells expressing hTERT and SV40 early region at 0.5 uM after 24 hrs by immunofluorescence analysis; type: functional, cell-based
Nucleic Acid [6] = assay: Binding affinity to d(TGGGGT) quadruplex DNA at compound/DNA ratio 4:1 by isothermal titration calorimetry analysis; type: nucleic-acid assay
HeLa [7] = assay: Induction of apoptosis in human HeLa cells at 3.5 uM after 96 hrs using Annexin V-FITC vs PI staining by flow cytometry (reference value: 5.3%); type: functional
HeLa [8] = assay: Induction of apoptosis in human HeLa cells at 3.5 uM after 120 hrs using Annexin V-FITC vs PI staining by flow cytometry (reference value: 8.3%); type: functional
HeLa [9] = assay: Induction of apoptosis in human HeLa cells at 3.5 uM after 72 hrs using Annexin V-FITC vs PI staining by flow cytometry (reference value: 3.9%); type: functional
HeLa [10] = assay: Induction of apoptosis in human HeLa cells at 3.5 uM after 24 hrs using Annexin V-FITC vs PI staining by flow cytometry (reference value: 3.8%); type: functional
HeLa [11] = assay: Cell cycle arrest in human HeLa cells assessed as accumulation at S phase at 3.5 uM after 120 hrs by flow cytometry (reference value: 31%); type: functional
HeLa [12] = assay: Cell cycle arrest in human HeLa cells assessed as accumulation at G2/M phase at 3.5 uM after 120 hrs by flow cytometry (reference value: 18%); type: functional
HeLa [13] = assay: Cell cycle arrest in human HeLa cells assessed as accumulation at G0-G1 phase at 3.5 uM after 120 hrs by flow cytometry (reference value: 51%); type: functional
HeLa [14] = assay: Cell cycle arrest in human HeLa cells assessed as accumulation at G2/M phase at 3.5 uM after 96 hrs by flow cytometry (reference value: 11%); type: functional
HeLa [15] = assay: Cell cycle arrest in human HeLa cells assessed as accumulation at sub-G1 phase at 3.5 uM after 120 hrs by flow cytometry (reference value: 14%); type: functional
HeLa [16] = assay: Cell cycle arrest in human HeLa cells assessed as accumulation at G0-G1 phase at 3.5 uM after 96 hrs by flow cytometry (reference value: 67%); type: functional
HeLa [17] = assay: Cell cycle arrest in human HeLa cells assessed as accumulation at S phase at 3.5 uM after 96 hrs by flow cytometry (reference value: 22%); type: functional
HeLa [18] = assay: Cell cycle arrest in human HeLa cells assessed as accumulation at sub-G1 phase at 3.5 uM after 96 hrs by flow cytometry (reference value: 6%); type: functional
HeLa [19] = assay: Cell cycle arrest in human HeLa cells assessed as accumulation at S phase at 3.5 uM after 72 hrs by flow cytometry (reference value: 22%); type: functional
HeLa [20] = assay: Cell cycle arrest in human HeLa cells assessed as accumulation at G2/M phase at 3.5 uM after 72 hrs by flow cytometry (reference value: 14%); type: functional
HeLa [21] = assay: Cell cycle arrest in human HeLa cells assessed as accumulation at G0-G1 phase at 3.5 uM after 72 hrs by flow cytometry (reference value: 64%); type: functional
HeLa [22] = assay: Cell cycle arrest in human HeLa cells assessed as accumulation at sub-G1 phase at 3.5 uM after 72 hrs by flow cytometry (reference value: 5%); type: functional
HeLa [23] = assay: Cell cycle arrest in human HeLa cells assessed as accumulation at S phase at 3.5 uM after 24 hrs by flow cytometry (reference value: 27%); type: functional
HeLa [24] = assay: Cell cycle arrest in human HeLa cells assessed as accumulation at G2/M phase at 3.5 uM after 24 hrs by flow cytometry (reference value: 16%); type: functional
HeLa [25] = assay: Cell cycle arrest in human HeLa cells assessed as accumulation at G0-G1 phase at 3.5 uM after 24 hrs by flow cytometry (reference value: 57%); type: functional
HeLa [26] = assay: Cell cycle arrest in human HeLa cells assessed as accumulation at sub-G1 phase at 3.5 uM after 24 hrs by flow cytometry (reference value: 3%); type: functional
HeLa [27] = assay: Cytotoxicity against human HeLa cells assessed as decrease in cell survival; type: functional, cell-based
Nucleic Acid [28] = assay: Displacement of distamycin-A from d(TGGGGT) quadruplex DNA at compound/DNA ratio 4:1 by isothermal titration calorimetry analysis; type: nucleic-acid assay

For `CCN1CCN(Cc2c(O)ccc3cc(-c4nc5ccccc5s4)c(=O)oc23)CC1`, the Activity (Nucleic Acid [1]) was “Active”.
For `CC1CCN(Cc2c(O)ccc3c(O)c(-c4nc5ccccc5s4)c(=N)oc23)CC1`, the Activity (Nucleic Acid [2]) was “Active”.
With `Nc1oc2c(CN3CCCCCC3)c(O)ccc2c(=O)c1-c1nc2ccccc2s1` the Activity (BJ [3]) was 50%, the Activity (BJ [4]) was “Active” and the Activity (BJ [5]) was “Active”. The Activity (Nucleic Acid [6]) was “Active” and the Activity (Nucleic Acid [2]) was “Active”.
`O=c1c(-c2nc3ccccc3s2)coc2c(CN3CCCC3)c(O)ccc12` was tested, and the Activity (Nucleic Acid [2]) was “Active”.
`O=c1c(-c2nc3ccccc3s2)coc2c(CN3CCOCC3)c(O)ccc12` was tested, and the Activity (Nucleic Acid [2]) was “Active”.
For `CC1(C)C[C@H]2CN(Cc3c(O)ccc4c(=O)c(-c5nc6ccccc6s5)c(N)oc34)[C@](C)(C2)C1`, the Activity (Nucleic Acid [2]) was “inactive”.
For `CN1CCN(Cc2c(O)ccc3cc(-c4nc5ccccc5s4)c(=O)oc23)CC1`, the Activity (Nucleic Acid [1]) was “Active”.
For `CC1CCCN(Cc2c(O)ccc3c(O)c(-c4nc5ccccc5s4)c(=N)oc23)C1` (stereo unspecified), the Activity (Nucleic Acid [2]) was “Active”.
`CC1CCCN(Cc2c(O)ccc3c(=O)c(-c4nc5ccccc5s4)coc23)C1` (stereo unspecified) was tested, and the Activity (Nucleic Acid [2]) was “Active”.
In the case of `CCOC(=O)N1CCN(Cc2c(O)ccc3cc(-c4nc5ccccc5s4)c(=O)oc23)CC1`, the Activity (Nucleic Acid [1]) was “inactive”.
In the case of `O=c1c(-c2nc3ccccc3s2)coc2c(CN3CCCCC3)c(O)ccc12`, the Activity (Nucleic Acid [2]) was “Active”.
`O=c1oc2c(CN3CCN(c4ccccc4)CC3)c(O)ccc2cc1-c1nc2ccccc2s1` was tested, and the Activity (Nucleic Acid [1]) was “inactive”.
Work on `CC1CCCC(C)N1Cc1c(O)ccc2c(=O)c(-c3nc4ccccc4s3)c(N)oc12` (stereo unspecified) yielded an Activity (HeLa [7]) of 13.9%, an Activity (HeLa [8]) of 30.6% and an Activity (HeLa [9]) of 7.1%. It also gave an Activity (HeLa [10]) of 4.6%, an Activity (HeLa [11]) of 26% and an Activity (HeLa [12]) of 31%. It also gave an Activity (HeLa [13]) of 43%, an Activity (HeLa [14]) of 32% and an Activity (HeLa [15]) of 38%. It also gave an Activity (HeLa [16]) of 40%, an Activity (HeLa [17]) of 28% and an Activity (HeLa [18]) of 19%. The Activity (HeLa [19]) was 23%, the Activity (HeLa [20]) was 37% and the Activity (HeLa [21]) was 40%. For the same molecule, the Activity (HeLa [22]) was 12%, the Activity (HeLa [23]) was 28% and the Activity (HeLa [24]) was 20%. For the same molecule, the Activity (HeLa [25]) was 52%, the Activity (HeLa [26]) was 5% and the inhibition (HeLa [27]) was “Dose-dependent effect”. For the same molecule, the Activity (BJ [3]) was 50%, the Activity (BJ [4]) was “Active” and the Activity (BJ [5]) was “Active”. The Activity (Nucleic Acid [6]) was “Active” and the Activity (Nucleic Acid [2]) was “Active”.
With `CC1CCCCN1Cc1c(O)ccc2c(=O)c(-c3nc4ccccc4s3)coc12` (stereo unspecified) the Activity (Nucleic Acid [2]) was “Active”.
For `Cc1oc2c(CN3CCCC3)c(O)ccc2c(=O)c1-c1nc2ccccc2s1`, the Activity (Nucleic Acid [2]) was “inactive”.
`CN(C)Cc1c(O)ccc2c(=O)c(-c3nc4ccccc4s3)coc12` was tested, and the Activity (Nucleic Acid [2]) was “Active”.
`CCC1CCCCN1Cc1c(O)ccc2c(=O)c(-c3nc4ccccc4s3)coc12` (stereo unspecified) was tested, and the Activity (Nucleic Acid [2]) was “Active”.
For `O=c1oc2c(CN(CCO)CCO)c(O)ccc2cc1-c1nc2ccccc2s1`, the Activity (Nucleic Acid [1]) was “Active”.
In the case of `Cc1oc2c(CN(C)C)c(O)ccc2c(=O)c1-c1nc2ccccc2s1`, the Activity (Nucleic Acid [2]) was “inactive”.
For `Cn1cc(NC(=O)c2cc(NC(=O)c3cc(NC=O)cn3C)cn2C)cc1C(=O)NCCC(=N)N`, the Activity (BJ [4]) was “Active” and the Activity (BJ [5]) was “Active”.
For `CCc1cc2c(=O)c(-c3nc4ccccc4s3)coc2c(CN2CCCC2)c1O`, the Activity (Nucleic Acid [2]) was “inactive”.
For `CC1CCN(Cc2c(O)ccc3c(=O)c(-c4nc5ccccc5s4)coc23)CC1`, the Activity (Nucleic Acid [2]) was “Active”.
For `CCN(CC)Cc1c(O)ccc2c(=O)c(-c3nc4ccccc4s3)coc12`, the Activity (BJ [3]) was 50%, the Activity (BJ [4]) was “Active” and the Activity (BJ [5]) was “Active”. For the same molecule, the Activity (Nucleic Acid [6]) was “Active” and the Activity (Nucleic Acid [2]) was “Active”.
With `O=c1oc2c(CN3CCN(CCO)CC3)c(O)ccc2cc1-c1nc2ccccc2s1` the Activity (Nucleic Acid [28]) was “Active” and the Activity (Nucleic Acid [6]) was “Active”.
For `O=c1c(-c2nc3ccccc3s2)coc2cc(O)ccc12`, the Activity (Nucleic Acid [2]) was “inactive”.
In the case of `CCc1cc2c(=O)c(-c3nc4ccccc4s3)coc2c(CN(CC)CC)c1O`, the Activity (Nucleic Acid [2]) was “inactive”.
